Patent US20250109118A1, “HETEROCYCLIC COMPOUNDS AS SHP2 INHIBITORS, COMPOSITIONS COMPRISING THE HETEROCYCLIC COMPOUND, AND METHODS OF USE THEREOF” (JS INNOMED HOLDINGS LTD., priority 2021, published 2025)
pIC50: −log10 of the molar value.

Legend:
MiaPaCa-2 cells = assay: MiaPaCa-2 Cell proliferation assay in 3D culture (CCK8); type: cell-based; settings: Homo sapiens, MIA PaCa-2, 120 h; 3D spheroid culture, 5 days with compound, CCK8 readout
Outline: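 Cells grown as spheroids (2500/well, ultra-low attachment, 10% FBS) for 24 h, then exposed 5 days to ten 3-fold compound dilutions at 0.1% DMSO. Viability by CCK8/WST-8, 1.5 h at 37 °C, absorbance 450 nm; IC50 from triplicates.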

SHP2 (PTPN11/SHP2-FL) = biological target: T1, SHP2 (PTPN11/SHP2-FL) (Homo sapiens, UniProt Q06124); assay: SHP2 biochemical assay (DiFMUP prompt fluorescence); settings: 0.5 nM SHP2, 0.35 μM activating peptide, DiFMUP 100 μM; read-out: SHP2 bichemical activity (IC50)
T1 construct: SHP2 (PTPN11/SHP2-FL, RBC produced, no cat #); purchased RBC no cat #
T1 sequence (Q06124 1-593): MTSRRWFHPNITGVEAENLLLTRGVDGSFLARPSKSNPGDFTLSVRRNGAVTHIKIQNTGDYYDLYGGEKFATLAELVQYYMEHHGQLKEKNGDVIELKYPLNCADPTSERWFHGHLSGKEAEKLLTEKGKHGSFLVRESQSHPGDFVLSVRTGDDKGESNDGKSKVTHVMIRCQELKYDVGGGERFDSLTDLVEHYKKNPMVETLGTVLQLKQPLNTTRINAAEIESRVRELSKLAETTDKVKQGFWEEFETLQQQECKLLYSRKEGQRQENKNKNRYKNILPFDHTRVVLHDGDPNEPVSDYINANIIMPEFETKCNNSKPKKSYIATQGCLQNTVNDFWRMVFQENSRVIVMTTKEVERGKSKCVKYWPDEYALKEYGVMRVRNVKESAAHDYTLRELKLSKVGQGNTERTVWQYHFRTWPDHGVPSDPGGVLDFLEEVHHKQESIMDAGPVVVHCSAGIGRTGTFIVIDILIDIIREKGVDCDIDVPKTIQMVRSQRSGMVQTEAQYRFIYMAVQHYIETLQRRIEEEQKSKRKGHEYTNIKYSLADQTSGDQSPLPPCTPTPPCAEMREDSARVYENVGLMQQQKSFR
Method: SHP2 is allosterically activated through binding of bis-tyro syiphorphorylated peptides to its Src Homology 2 (SH2) domains. The latter activation step leads to the release of the auto-inhibitory interface of SHP2, which in turn renders the SHP2 PTP active and available for substrate recognition and reaction catalysis. The catalytic activity of SHP2 was monitored using the surrogate substrate DiFMUP in a prompt fluorescence assay format. Specifically, the phosphatase reactions were performed at room temperature in 384-well black polystyrene plate, flat bottom, low flange, non-binding surface (Corning, Cat #3575) using a final reaction volume of 20 μL and the following assay buffer conditions: 60 mM HEPES, pH 7.2, 75 mM NaCl, 75 mM KCl, 1 mM EDTA, 0.01% Brij-35, 5 mM DTT, and 10% DMSO (final). The inhibition of SHP2 from the tested compounds (final concentrations varying from 0.003-100 μM) was monitored using an assay in which 0.5 nM of SHP2 (PTPN11/SHP2-FL, RBC produced, no cat #) was incubated with 0.35 μM of the peptide H2NLN(pY)IDLDLV(dPEG8)LST(pY)ASINFQK-amide. After 20 minutes of incubation at room temperature, the surrogate substrate DiFMUP (6,8-difluoro-7-hydroxy-4-methylcoumarin, Invitrogen, cat #D6567, 100 μM final concentration) was added to the reaction. The fluorescence signal was monitored using a microplate reader (Envision, Perkin-Elmer) using excitation and emission wavelengths of 355 nm and 460 nm, respectively. The inhibitor dose response curves were analyzed using normalized IC50 regression curve fitting with control based normalization.
The IC50 values of for Compounds disclosed are listed in Table 2, A: ≤10 nM; B: >10 nM and ≤100 nM; C: >100 nM and ≤1 uM; and D: >1 μM.

Compound | pIC50 (MiaPaCa-2 cells) | pIC50 (SHP2 (PTPN11/SHP2-FL))
CC1(CN)CCN(c2cnc(Sc3cccc(C(=O)NS(=O)(=O)c4ccccc4)c3Cl)c(N)n2)CC1 [Example 5, 3-((3-amino-5-(4-(aminomethyl)-4-methylpiperidin-1-yl)pyrazin-2-yl)thio)-2-chloro-N-(phenylsulfonyl)benzamide] | ≥ 6.30 | ≥ 8.00
CC1(CN)CCN(c2cnc(Sc3cccc(S(=O)(=O)NC(=O)c4ccccc4)c3Cl)cn2)CC1 [Example 7, N-((3-((5-(4-(aminomethyl)-4-methylpiperidin-1-yl)pyrazin-2-yl)thio)-2-chlorophenyl)sulfonyl)benzamide] | 5.30 to 6.30 | 7.00 to 8.00
CC1(N)CCN(c2cnc(Sc3cccc(S(=O)(=O)NC(=O)c4ccccc4)c3Cl)c(N)n2)CC1 [Example 8, N-((3-((3-amino-5-(4-amino-4-methylpiperidin-1-yl)pyrazin-2-yl)thio)-2-chlorophenyl)sulfonyl)benzamide] | 4.30 to 5.30 | 7.00 to 8.00
CC1(N)CCN(c2cnc(Sc3cccc(C(=O)NS(=O)(=O)C4CC4)c3Cl)cn2)CC1 [Example 18, 3-((5-(4-amino-4-methylpiperidin-1-yl)pyrazin-2-yl)thio)-2-chloro-N-(cyclopropylsulfonyl)benzamide] | 4.30 to 5.30 | 7.00 to 8.00
CC1(N)CCN(c2cnc(Sc3cccc(C(=O)NS(C)(=O)=O)c3Cl)cn2)CC1 [Example 19, 3-((5-(4-amino-4-methylpiperidin-1-yl)pyrazin-2-yl)thio)-2-chloro-N-(methylsulfonyl)benzamide] | 4.30 to 5.30 | 7.00 to 8.00
CC1(N)CCN(c2cnc(Sc3cccc(C(=O)NS(=O)(=O)C4CCCCC4)c3Cl)cn2)CC1 [Example 20, 3-((5-(4-amino-4-methylpiperidin-1-yl)pyrazin-2-yl)thio)-2-chloro-N-(cyclohexylsulfonyl)benzamide] | 4.30 to 5.30 | 7.00 to 8.00
CC1(CN)CCN(c2cnc(Sc3cccc(C(=O)NS(=O)(=O)c4ccccc4)c3Cl)cn2)CC1 [Example 21, 3-((5-(4-(aminomethyl)-4-methylpiperidin-1-yl)pyrazin-2-yl)thio)-2-chloro-N-(phenylsulfonyl)benzamide] | ≥ 6.30 | ≥ 8.00
CC1(CN)CCN(c2cnc(Sc3cccc(C(=O)NS(=O)(=O)c4ccccn4)c3Cl)cn2)CC1 [Example 22, 3-((5-(4-(aminomethyl)-4-methylpiperidin-1-yl)pyrazin-2-yl)thio)-2-chloro-N-(pyridin-2-ylsulfonyl)benzamide] | ≥ 6.30 | ≥ 8.00
CC1(CN)CCN(c2cnc(Sc3cccc(C(=O)NS(=O)(=O)c4ccccc4F)c3Cl)cn2)CC1 [Example 23, 3-((5-(4-(aminomethyl)-4-methylpiperidin-1-yl)pyrazin-2-yl)thio)-2-chloro-N-((2-fluorophenyl)sulfonyl)benzamide] | 5.30 to 6.30 | ≥ 8.00
CC1(CN)CCN(c2cnc(Sc3cccc(C(=O)NS(=O)(=O)c4cccnc4)c3Cl)cn2)CC1 [Example 24, 3-((5-(4-(aminomethyl)-4-methylpiperidin-1-yl)pyrazin-2-yl)thio)-2-chloro-N-(pyridin-3-ylsulfonyl)benzamide] | 5.30 to 6.30 | ≥ 8.00
CC1(CN)CCN(c2cnc(Sc3cccc(C(=O)NS(=O)(=O)C4CC4)c3Cl)cn2)CC1 [Example 25, 3-((5-(4-(aminomethyl)-4-methylpiperidin-1-yl)pyrazin-2-yl)thio)-2-chloro-N-(cyclopropylsulfonyl)benzamide] | ≥ 6.30 | ≥ 8.00
CC1(CN)CCN(c2cnc(Sc3cccc(C(=O)NS(C)(=O)=O)c3Cl)cn2)CC1 [Example 26, 3-((5-(4-(aminomethyl)-4-methylpiperidin-1-yl)pyrazin-2-yl)thio)-2-chloro-N-(methylsulfonyl)benzamide] | ≥ 6.30 | ≥ 8.00
CC1(CN)CCN(c2cnc(Sc3cccc(C(=O)NS(=O)(=O)C4CCCCC4)c3Cl)cn2)CC1 [Example 27, 3-((5-(4-(aminomethyl)-4-methylpiperidin-1-yl)pyrazin-2-yl)thio)-2-chloro-N-(cyclohexylsulfonyl)benzamide] | ≥ 6.30 | ≥ 8.00
CC1(CN)CCN(c2cnc(Sc3cccc(C(=O)NS(=O)(=O)c4ccncc4)c3Cl)cn2)CC1 [Example 28, 3-((5-(4-(aminomethyl)-4-methylpiperidin-1-yl)pyrazin-2-yl)thio)-2-chloro-N-(pyridin-4-ylsulfonyl)benzamide] | 5.30 to 6.30 | ≥ 8.00
CC1(CN)CCN(c2cnc(Sc3cccc(NC(=O)NS(C)(=O)=O)c3Cl)cn2)CC1 [Example 29, N-((3-((5-(4-(aminomethyl)-4-methylpiperidin-1-yl)pyrazin-2-yl)thio)-2-chlorophenyl)carbamoyl)methanesulfonamide] | ≥ 6.30 | ≥ 8.00
CC1(CN)CCN(c2cnc(Sc3cccc(C(=O)NS(=O)(=O)C4CCCC4)c3Cl)cn2)CC1 [Example 30, 3-((5-(4-(aminomethyl)-4-methylpiperidin-1-yl)pyrazin-2-yl)thio)-2-chloro-N-(cyclopentylsulfonyl)benzamide] | 5.30 to 6.30 | ≥ 8.00
Nc1nc(N2CCC3(CC2)COC[C@H]3N)cnc1Sc1cccc(C(=O)NS(=O)(=O)c2ccccc2)c1Cl [Example 31, (S)-3-((3-amino-5-(4-amino-2-oxa-8-azaspiro[4.5]decan-8-yl)pyrazin-2-yl)thio)-2-chloro-N-(phenylsulfonyl)benzamide] | ≥ 6.30 | ≥ 8.00
CC1(CN)CCN(c2cnc(Sc3cccc(NC(=O)NS(=O)(=O)C4CC4)c3Cl)cn2)CC1 [Example 32, N-((3-((5-(4-(aminomethyl)-4-methylpiperidin-1-yl)pyrazin-2-yl)thio)-2-chlorophenyl)carbamoyl)cyclopropanesulfonamide] | ≥ 6.30 | ≥ 8.00
CC1(N)CCN(c2cnc(Sc3cccc(S(=O)(=O)NC(=O)c4ccccc4)c3Cl)cn2)CC1 [Example 33, N-((3-((5-(4-amino-4-methylpiperidin-1-yl)pyrazin-2-yl)thio)-2-chlorophenyl)sulfonyl)benzamide] | ≥ 6.30 | 7.00 to 8.00
CC1(CN)CCN(c2cnc(Sc3cccc(C(=O)NS(=O)(=O)c4ccccc4F)c3Cl)c(N)n2)CC1 [Example 34, 3-((3-amino-5-(4-(aminomethyl)-4-methylpiperidin-1-yl)pyrazin-2-yl)thio)-2-chloro-N-((2-fluorophenyl)sulfonyl)benzamide] | 5.30 to 6.30 | ≥ 8.00
CC1(CN)CCN(c2cnc(Sc3cccc(C(=O)NS(=O)(=O)c4ccccn4)c3Cl)c(N)n2)CC1 [Example 35, 3-((3-amino-5-(4-(aminomethyl)-4-methylpiperidin-1-yl)pyrazin-2-yl)thio)-2-chloro-N-(pyridin-2-ylsulfonyl)benzamide] | ≥ 6.30 | ≥ 8.00
CC1(CN)CCN(c2cnc(Sc3cccc(C(=O)NS(=O)(=O)C4CC4)c3Cl)c(N)n2)CC1 [Example 36, 3-((3-amino-5-(4-(aminomethyl)-4-methylpiperidin-1-yl)pyrazin-2-yl)thio)-2-chloro-N-(cyclopropylsulfonyl)benzamide] | 5.30 to 6.30 | 7.00 to 8.00
CC1(CN)CCN(c2cnc(Sc3cccc(C(=O)NS(C)(=O)=O)c3Cl)c(N)n2)CC1 [Example 37, 3-((3-amino-5-(4-(aminomethyl)-4-methylpiperidin-1-yl)pyrazin-2-yl)thio)-2-chloro-N-(methylsulfonyl)benzamide] | 4.30 to 5.30 | 7.00 to 8.00
